This passage reports IC50 results from patent US6875760B2 (Novo Nordisk A/S, priority 1999, dated 2005).

Like-named read-outs stand apart in the source and are kept apart here.

For the assay, the target named is T1, human glucagon receptor (Homo sapiens, UniProt P47871).
T1 construct: expressed in transfected cells; host or cells: BHK (baby hamster kidney) cells
Briefly: Glucagon Binding Assay (III). As to conditions: BHK cell membranes, WGA SPA beads, 125I-glucagon. The method, boiled down: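 Non-specific binding was set with 500 nM glucagon in this SPA-type binding assay using WGA beads. The receptor source was a membrane preparation, kept on ice or at 4 °C, from BHK cells transfected with the human receptor. Scintillation counts were taken after 4 hours of shaking and 8–48 hours of settling.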

Where [1] appears, read: read-out: Glu Bd Assay (III) IC50.

T1 sequence (P47871 26-477): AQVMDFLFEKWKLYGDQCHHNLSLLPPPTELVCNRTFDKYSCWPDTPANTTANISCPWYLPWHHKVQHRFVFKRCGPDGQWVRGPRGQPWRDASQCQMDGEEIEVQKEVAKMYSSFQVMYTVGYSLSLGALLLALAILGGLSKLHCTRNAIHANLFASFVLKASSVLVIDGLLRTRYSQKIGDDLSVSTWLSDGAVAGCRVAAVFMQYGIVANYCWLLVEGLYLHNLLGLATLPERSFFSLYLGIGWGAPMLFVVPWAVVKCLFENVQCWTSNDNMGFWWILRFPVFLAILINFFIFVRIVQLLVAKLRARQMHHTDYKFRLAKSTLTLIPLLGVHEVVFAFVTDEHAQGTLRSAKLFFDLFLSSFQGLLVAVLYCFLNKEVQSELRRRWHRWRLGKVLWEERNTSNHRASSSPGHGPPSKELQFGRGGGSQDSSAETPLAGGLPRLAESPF

The IC50 is the midpoint of a concentration-inhibition curve. With `O=C(O)c1ccc2nc(NC(=O)N(Cc3ccc(C(=O)Nc4nn[nH]n4)cc3)c3ccc(C4CCCCC4)cc3)sc2c1` [Example 364, 2-{3-(4-Cyclohexylphenyl)-3-[4-(2H-tetrazol-5-ylcarbamoyl)benzyl]ureido}benzothiazole-6-carboxylic acid], the IC50 under setting [1] came out at 2680 nM.

Take `COc1ccc2nc(NC(=O)N(Cc3ccc(C(=O)Nc4nn[nH]n4)cc3)c3ccc(C4CCCCC4)cc3)sc2c1` [Example 365, 4-[1-(4-Cyclohexylphenyl)-3-(6-methoxybenzothiazol-2-yl)ureidomethyl]-N-(2H-tetrazol-5-yl)benzamide]: the IC50 under setting [1] came to 1430 nM.

For the compound `O=C(Nc1nn[nH]n1)c1ccc(CN(C(=O)Nc2ccc3c(c2)C(F)(F)OC(F)(F)O3)c2ccc(C3CCCCC3)cc2)cc1` [Example 366, 4-[1-(4-Cyclohexylphenyl)-3-(2,2,4,4-tetrafluoro-4H-benzo[1,3]dioxin-6-yl)ureidomethyl]-N-(2H-tetrazol-5-yl)benzamide], under setting [1], the 50% inhibitory concentration (IC50) came out at 12 nM.

In the case of `CCCCOc1ccc(NC(=O)N(Cc2ccc(C(=O)Nc3nn[nH]n3)cc2)c2ccc(C(C)(C)C)cc2)cc1S(C)(=O)=O` [Example 367, 4-[3-(4-Butoxy-3-methylsulfonylphenyl)-1-(4-tert-butylphenyl)ureidomethyl]-N-(2H-tetrazol-5-yl)benzamide], under setting [1], the half-inhibitory concentration (IC50) was 34 nM.

For `CCCCOc1ccc(NC(=O)N(Cc2ccc(C(=O)Nc3nn[nH]n3)cc2)c2ccc(C3CCCCC3)cc2)cc1S(C)(=O)=O` [Example 368, 4-[3-(4-Butoxy-3-methylsulfonylphenyl)-1-(4-cyclohexylphenyl)ureidomethyl]-N-(2H-tetrazol-5-yl)benzamide], under setting [1], the IC50 amounted to 37 nM.

As for `CS(=O)(=O)Cc1cccc(NC(=O)N(Cc2ccc(C(=O)Nc3nn[nH]n3)cc2)c2ccc(C3CCCCC3)cc2)c1` [Example 369, 4-[1-(4-Cyclohexylphenyl)-3-(3-methylsulfonylmethylphenyl)ureidomethyl]-N-(2H-tetrazol-5-yl)benzamide], the IC50 under setting [1] was 558 nM.

For `Cn1nnc(-c2cccc(NC(=O)N(Cc3ccc(C(=O)Nc4nn[nH]n4)cc3)c3ccc(C(C)(C)C)cc3)c2)n1` [Example 370, 4-{1-(4-tert-Butylphenyl)-3-[3-(2-methyl-2H-tetrazol-5-yl)phenyl]ureidomethyl}-N-(2H-5-yl)benzamide], under setting [1], the IC50 came to 87 nM.

`Cn1nnc(-c2cccc(NC(=O)N(Cc3ccc(C(=O)Nc4nn[nH]n4)cc3)c3ccc(C4CCCCC4)cc3)c2)n1` [Example 371]: the IC50 under setting [1] worked out at 52 nM.

For `CCCCc1ccc(N(Cc2ccc(C(=O)NCCC(=O)O)cc2)C(=O)Nc2ccc(OC(F)(F)F)cc2)cc1` [Example 372, 3-{4-[1-(4-Butylphenyl)-3-(4-trifluoromethoxyphenyl)ureidomethyl]benzoylamino}propionic acid], the IC50 under setting [1] came to 90 nM.

In the case of `CC(C)(C)c1ccc(N(Cc2ccc(C(=O)NCCC(=O)O)cc2)C(=O)Nc2ccc(OC(F)(F)F)cc2)cc1` [Example 373, 3-{4-[1-(4-tert-Butylphenyl)-3-(4-trifluoromethoxyphenyl)ureidomethyl]benzoylamino}propionic acid], the half-inhibitory concentration (IC50) under setting [1] is 96 nM.

With `CC(C)(C)c1ccc(N(Cc2ccc(C(=O)Nc3nn[nH]n3)cc2)C(=O)Nc2ccc(OC(F)(F)F)cc2)cc1` [Example 374, 4-[1-(4-tert-Butylphenyl)-3-(4-trifluoromethoxyphenyl)ureidomethyl]-N-(2H-tetrazol-5-yl)benzamide], the IC50 under setting [1] worked out at 10 nM.

Take `CC(C)(C)[C@H]1CC[C@H](N(Cc2ccc(C(=O)Nc3nn[nH]n3)cc2)C(=O)Nc2cc(C(F)(F)F)cc(C(F)(F)F)c2)CC1` [Example 375, 4-[3-(3,5-Bis(trifluoromethyl)phenyl)-1-(trans-4-tert-butylcyclohexyl)ureidomethyl]-N-(2H-tetrazol-5-yl)benzamide]: the IC50 under setting [1] amounted to 29 nM.

In the case of `CC(C)(C)[C@H]1CC[C@H](N(Cc2ccc(C(=O)NCCC(=O)NO)cc2)C(=O)Nc2ccc(OC(F)(F)F)cc2)CC1` [Example 376, 4-[1-(trans-4-tert-Butylcyclohexyl)-3-(4-trifluoromethoxyphenyl)ureidomethyl]-N-(2-hydroxycarbamoylethyl)benzamide], the IC50 under setting [1] was found to be 391 nM.

The compound `CC(C)(C)[C@H]1CC[C@H](N(Cc2ccc(C(=O)NCC(=O)NO)cc2)C(=O)Nc2ccc(OC(F)(F)F)cc2)CC1` [Example 377, 4-[1-(trans-4-tert-Butylcyclohexyl)-3-(4-trifluoromethoxyphenyl)ureidomethyl]-N-hydroxycarbamomethyl-benzamide] came in with an IC50 (Glu Bd Assay (III) IC50 (nM)) of 2960 nM.

For `CCCCN1C(=O)c2ccc(NC(=O)N(Cc3ccc(C(=O)Nc4nn[nH]n4)cc3)c3ccc(C(C)(C)C)cc3)cc2C1=O` [Example 378, 4-[3-(2-Butyl-1,3-dioxo-2,3-dihydro-1H-isoindol-5-yl)-1-(4-tert-butylphenyl)ureidomethyl]-N-(2H-tetrazol-5-yl)benzamide], the IC50 under setting [1] was 23 nM.

Consider `COc1cccc2cc(C(C)NC(=O)N(Cc3ccc(C(=O)Nc4nn[nH]n4)cc3)c3ccc(C4CCCCC4)cc3)ccc12` (stereo not drawn) [Example 379, 4-{1-(4-Cyclohexylphenyl)-3-[1-(5-methoxynaphthalen-2-yl)ethyl]ureidomethyl}-N-(2H-tetrazol-5-yl)benzamide], for which, under setting [1], the IC50 is 66 nM.

Turning to `CC(C)(C)[C@H]1CC[C@H](N(Cc2ccc(C(=O)Nc3nn[nH]n3)cc2)NC(=O)c2ccc(OC(F)(F)F)cc2)CC1` [Example 380, 4-[N-(trans-4-tert-Butylcyclohexyl)-N′-(4-trifluoromethoxybenzoyl)hydrazinomethyl]-N-(2H-tetrazol-5-yl)benzamide], the IC50 under setting [1] turned out to be 71 nM.

For the compound `O=C(O)CCNC(=O)c1ccc(CN(C(=O)Nc2ccc(OC(F)(F)F)cc2)C2CCN(C(=O)C3CC3)CC2)cc1` [Example 381, 3-{4-[1-(1-Cyclopropanecarbonylpiperidin-4-yl)-3-(4-trifluoromethoxyphenyl)ureidomethyl]benzoylamino}propionic acid], the IC50 under setting [1] turned out to be 1980 nM.

Consider `CCN(CC)C(=O)C1CCC(N(Cc2ccc(C(=O)NCCC(=O)O)cc2)C(=O)Nc2ccc(OC(F)(F)F)cc2)CC1` (stereo not drawn) [Example 382, 3-{4-[1-(4-Diethylcarbamoylcyclohexyl)-3-(4-trifluoromethoxyphenyl)ureidomethyl]benzoylamino}propionic acid], for which the half-inhibitory concentration (IC50) under setting [1] amounted to 781 nM.

With `O=C(O)CCNC(=O)c1ccc(CN(C(=O)Nc2ccc(OC(F)(F)F)cc2)C(=O)Nc2ccc(OC(F)(F)F)cc2)cc1` [Example 383, 3-{4-[1,5-Bis(4-trifluoromethoxyphenyl)-3-biuretmethyl]benzoylamino}propionic acid], the concentration for half-maximal inhibition (IC50) under setting [1] came to 931 nM.

Take `O=C(O)CCNC(=O)c1ccc(CN(Cc2ccc(C(F)(F)F)cc2)Cc2ccc(C(F)(F)F)cc2)cc1` [Example 384, 3-(4-{[Bis(4-trifluoromethylbenzyl)amino]methyl}benzoylamino)propionic acid]: the IC50 under setting [1] is 324 nM.

In the case of `CCN(c1ccccc1)S(=O)(=O)c1cc(NC(=O)N(Cc2ccc(C(=O)NCCC(=O)O)cc2)[C@H]2CC[C@H](C3CCCCC3)CC2)ccc1C` [Example 390, 3-(4-{1-(trans-4-Cyclohexylcyclohexyl)-3-[3-(N-ethyl-N-phenylsulfamoyl)-4-methylphenyl]ureidomethyl}benzoylamino)propionic acid], the half-inhibitory concentration (IC50) under setting [1] turned out to be 6 nM.

For `O=C(O)CCNC(=O)c1ccc(CN(C(=O)NCc2ccccc2-c2ccccc2)[C@H]2CC[C@H](C3CCCCC3)CC2)cc1` [Example 391], the IC50 under setting [1] came to 21 nM.

Regarding `COC(=O)c1cc(-c2cccc(NC(=O)N(Cc3ccc(C(=O)NCCC(=O)O)cc3)[C@H]3CC[C@H](C4CCCCC4)CC3)c2)oc1C` [Example 392, 5-(3-{3-(trans-4-Cyclohexylcyclohexyl)-3-[4-(2-carboxyethylcarbamoyl)benzyl]ureido}phenyl)-2-methylfuran-3-carboxylic acid methyl ester], under setting [1], the 50% inhibitory concentration (IC50) was 36 nM.

`O=C(O)CCNC(=O)c1ccc(CN(C(=O)Nc2cc(Br)cc(C(F)(F)F)c2)[C@H]2CC[C@H](C3CCCCC3)CC2)cc1` [Example 393, 3-{4-[1-(trans-4-Cyclohexylcyclohexyl)-3-(3-bromo-5-trifluoromethylphenyl)ureidomethyl]benzoylamino}propionic acid]: the IC50 under setting [1] came out at 17 nM.

For `O=C(O)CCNC(=O)c1ccc(CN(C(=O)Nc2cc(Br)cc(C(F)(F)F)c2)c2ccc(C3CCCCC3)cc2)cc1` [Example 394, 3-{4-[1-(4-Cyclohexylphenyl)-3-(3-bromo-5-trifluoromethylphenyl)ureidomethyl]benzoylamino}propionic acid], under setting [1], the concentration for half-maximal inhibition (IC50) came out at 17 nM.

For the compound `O=C(Nc1nn[nH]n1)c1ccc(CN(C(=O)NCc2cc(Cl)cc(Cl)c2)c2ccc(C3CCCCC3)cc2)cc1` [Example 397, 4-[1-(4-Cyclohexylphenyl)-3-(3,5-dichlorobenzyl)ureidomethyl]-N-(2H-tetrazol-5-yl)benzamide], the 50% inhibitory concentration (IC50) under setting [1] was found to be 120 nM.

As to `CC(C)(C)C1CCC(N(Cc2ccc(C(=O)NCCC(=O)O)cc2)C(=O)Oc2ccc(-c3ccccc3)cc2)CC1` (stereo not drawn) [Example 398, 3-(4-{[(Biphenyl-4-yloxycarbonyl)-(4-tert-butylcyclohexyl)amino]methyl}benzoylamino)propionic acid], under setting [1], the IC50 came to 135 nM.

For the compound `CC(C)(C)C1CCC(N(Cc2ccc(C(=O)NCCC(=O)O)cc2)C(=O)Oc2ccc([N+](=O)[O-])cc2)CC1` (stereo not drawn) [Example 399, 3-(4-{[(4-tert-Butylcyclohexyl)-(4-nitrophenoxycarbonyl)amino]methyl}benzoylamino)propionic acid], under setting [1], the concentration for half-maximal inhibition (IC50) came out at 120 nM.

Take `O=C(O)CCNC(=O)c1ccc(CN(C(=O)Oc2cc(Cl)cc(Cl)c2)c2ccc(C3CCCCC3)cc2)cc1` [Example 400, 3-(4-{[(4-Cyclohexylphenyl)-(3,5-dichlorophenoxycarbonyl)amino]methyl}benzoylamino)propionic acid]: the half-inhibitory concentration (IC50) under setting [1] is 533 nM.
